This note sets out measurements from patent US6566344B1, “β-L-2′-deoxy-nucleosides for the treatment of hepatitis B” (priority 1998, dated 2003).

One assay has as its target T1, human DNA polymerase γ (Homo sapiens, UniProt P54098).
T1 sequence (P54098 1-1239): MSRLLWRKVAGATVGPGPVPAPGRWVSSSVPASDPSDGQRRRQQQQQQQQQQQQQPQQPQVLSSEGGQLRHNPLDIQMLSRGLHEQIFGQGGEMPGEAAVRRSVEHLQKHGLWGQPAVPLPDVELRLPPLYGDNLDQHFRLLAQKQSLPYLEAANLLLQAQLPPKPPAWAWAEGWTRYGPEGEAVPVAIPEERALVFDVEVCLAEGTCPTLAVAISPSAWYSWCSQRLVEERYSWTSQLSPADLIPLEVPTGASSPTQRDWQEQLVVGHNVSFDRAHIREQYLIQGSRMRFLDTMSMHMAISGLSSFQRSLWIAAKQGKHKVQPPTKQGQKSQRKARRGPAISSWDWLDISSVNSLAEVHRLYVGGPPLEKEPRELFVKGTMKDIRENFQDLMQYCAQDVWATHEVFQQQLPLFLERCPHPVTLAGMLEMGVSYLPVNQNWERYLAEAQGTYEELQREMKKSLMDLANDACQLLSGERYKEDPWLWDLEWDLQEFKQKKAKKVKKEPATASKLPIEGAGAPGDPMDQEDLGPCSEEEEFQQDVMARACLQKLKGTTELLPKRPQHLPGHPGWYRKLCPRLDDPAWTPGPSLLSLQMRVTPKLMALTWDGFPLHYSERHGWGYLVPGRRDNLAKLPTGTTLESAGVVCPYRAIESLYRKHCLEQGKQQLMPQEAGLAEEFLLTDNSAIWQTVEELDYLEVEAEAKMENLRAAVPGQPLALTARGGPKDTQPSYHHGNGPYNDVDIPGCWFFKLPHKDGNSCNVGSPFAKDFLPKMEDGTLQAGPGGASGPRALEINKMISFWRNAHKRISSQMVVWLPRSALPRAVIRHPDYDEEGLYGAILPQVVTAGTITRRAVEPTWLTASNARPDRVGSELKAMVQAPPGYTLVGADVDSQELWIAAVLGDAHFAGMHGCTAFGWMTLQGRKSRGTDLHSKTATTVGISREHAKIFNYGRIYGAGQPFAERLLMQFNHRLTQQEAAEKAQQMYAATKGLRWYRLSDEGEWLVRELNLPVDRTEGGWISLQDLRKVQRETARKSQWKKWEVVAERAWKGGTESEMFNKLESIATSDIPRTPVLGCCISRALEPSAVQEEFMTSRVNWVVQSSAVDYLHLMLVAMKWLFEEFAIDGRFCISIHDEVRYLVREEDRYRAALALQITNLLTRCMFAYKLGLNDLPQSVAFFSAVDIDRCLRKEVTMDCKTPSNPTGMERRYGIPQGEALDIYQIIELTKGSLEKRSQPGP
Briefly: Inhibition of human DNA polymerase γ (Dixon plot, calf thymus activated DNA, dATP). It counts as biochemical. The note with it: calf thymus activated DNA as template-primer, dATP as substrate; read-out: DNA pol γ Ki.

The target in another assay is T2, human DNA polymerase α (Homo sapiens, UniProt P09884).
T2 sequence (P09884 1-1462): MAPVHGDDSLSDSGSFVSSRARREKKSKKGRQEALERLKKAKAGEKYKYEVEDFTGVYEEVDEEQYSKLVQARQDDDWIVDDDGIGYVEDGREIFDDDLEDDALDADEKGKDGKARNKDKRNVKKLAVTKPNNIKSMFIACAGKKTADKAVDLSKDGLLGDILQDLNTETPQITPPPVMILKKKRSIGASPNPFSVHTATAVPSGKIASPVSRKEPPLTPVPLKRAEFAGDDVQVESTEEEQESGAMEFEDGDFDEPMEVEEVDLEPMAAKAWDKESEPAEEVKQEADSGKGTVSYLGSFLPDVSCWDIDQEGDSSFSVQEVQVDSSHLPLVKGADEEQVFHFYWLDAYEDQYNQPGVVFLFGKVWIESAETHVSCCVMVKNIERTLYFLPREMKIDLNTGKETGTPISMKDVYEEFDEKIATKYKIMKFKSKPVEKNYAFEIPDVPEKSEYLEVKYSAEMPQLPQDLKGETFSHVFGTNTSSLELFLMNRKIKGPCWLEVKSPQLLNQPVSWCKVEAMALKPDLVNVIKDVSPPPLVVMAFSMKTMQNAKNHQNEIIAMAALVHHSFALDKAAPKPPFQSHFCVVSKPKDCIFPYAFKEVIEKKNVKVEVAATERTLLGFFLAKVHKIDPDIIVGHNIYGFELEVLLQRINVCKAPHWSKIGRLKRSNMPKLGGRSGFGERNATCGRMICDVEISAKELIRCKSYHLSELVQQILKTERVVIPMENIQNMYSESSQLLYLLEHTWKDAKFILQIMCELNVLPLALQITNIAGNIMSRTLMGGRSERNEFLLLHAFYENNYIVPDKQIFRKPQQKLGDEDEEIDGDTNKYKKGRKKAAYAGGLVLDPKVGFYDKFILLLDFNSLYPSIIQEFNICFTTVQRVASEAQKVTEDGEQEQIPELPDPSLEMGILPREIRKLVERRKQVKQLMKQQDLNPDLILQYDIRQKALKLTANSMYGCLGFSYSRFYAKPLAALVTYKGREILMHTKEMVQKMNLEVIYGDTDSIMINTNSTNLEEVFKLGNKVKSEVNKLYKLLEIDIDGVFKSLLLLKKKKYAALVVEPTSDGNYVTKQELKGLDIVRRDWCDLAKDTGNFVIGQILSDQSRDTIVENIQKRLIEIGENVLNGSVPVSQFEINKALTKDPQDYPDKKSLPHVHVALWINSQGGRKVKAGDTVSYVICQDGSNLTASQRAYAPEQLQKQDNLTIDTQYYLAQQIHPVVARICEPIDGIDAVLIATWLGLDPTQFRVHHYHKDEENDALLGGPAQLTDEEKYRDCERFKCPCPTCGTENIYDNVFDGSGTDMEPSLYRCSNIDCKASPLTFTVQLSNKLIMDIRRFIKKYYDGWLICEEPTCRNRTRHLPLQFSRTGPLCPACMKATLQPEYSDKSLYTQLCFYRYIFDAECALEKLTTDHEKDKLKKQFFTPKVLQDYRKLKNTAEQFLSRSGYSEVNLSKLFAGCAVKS
Briefly: Inhibition of human DNA polymerase α (Dixon plot, calf thymus activated DNA, dATP). As to conditions: calf thymus activated DNA as template-primer, dATP as substrate; read-out: DNA pol α Ki. It counts as biochemical.

Assay [1] has as its target woodchuck hepatitis virus (WHV) DNA polymerase (Woodchuck hepatitis B virus, UniProt P03160). Briefly: Inhibition of woodchuck hepatitis virus (WHV) DNA polymerase by triphosphates.
The target in a further assay is human DNA polymerase β (Homo sapiens, UniProt P06746). Briefly: Inhibition of human DNA polymerase β (Dixon plot, calf thymus activated DNA, dATP). It counts as biochemical. The note with it: calf thymus activated DNA as template-primer, dATP as substrate; read-out: DNA pol β Ki.
For assay [2], the system named is woodchuck hepatitis virus (WHV). As to the kind of experiment: Woodchuck model of chronic HBV infection (WHV DNA in serum). It counts as in vivo, woodchucks (Marmota monax). On the procedure: The efficacy of L-dA, L-dT and L-dC against hepadnavirus infection in woodchucks (Marmota monax) chronically infected with woodchuck hepatitis virus (WHV) was determined. This animal model of HBV infection is widely accepted and has proven to be useful for the evaluation of antiviral agents directed against HBV. Experimental groups (n=3 animals/drug group, n=4 animals/control) [table] Drugs were administered by oral gavage once daily, and blood samples taken on days 0, 1, 3, 7, 14, 21, 28, and on post-treatment days +1, +3, +7, +14, +28 and +56. Assessment of the activity and toxicity was based on the reduction of WHV DNA in serum: dot-blot, quantative PCR.

A word on the Ki: it is a measure of affinity in units of concentration, obtained from inhibition or displacement. A word on the IC50: it is the midpoint of a concentration-inhibition curve. Lower therefore signals inhibition by little substance.

Sequence of woodchuck hepatitis virus (WHV) DNA polymerase (P03160 whole entry): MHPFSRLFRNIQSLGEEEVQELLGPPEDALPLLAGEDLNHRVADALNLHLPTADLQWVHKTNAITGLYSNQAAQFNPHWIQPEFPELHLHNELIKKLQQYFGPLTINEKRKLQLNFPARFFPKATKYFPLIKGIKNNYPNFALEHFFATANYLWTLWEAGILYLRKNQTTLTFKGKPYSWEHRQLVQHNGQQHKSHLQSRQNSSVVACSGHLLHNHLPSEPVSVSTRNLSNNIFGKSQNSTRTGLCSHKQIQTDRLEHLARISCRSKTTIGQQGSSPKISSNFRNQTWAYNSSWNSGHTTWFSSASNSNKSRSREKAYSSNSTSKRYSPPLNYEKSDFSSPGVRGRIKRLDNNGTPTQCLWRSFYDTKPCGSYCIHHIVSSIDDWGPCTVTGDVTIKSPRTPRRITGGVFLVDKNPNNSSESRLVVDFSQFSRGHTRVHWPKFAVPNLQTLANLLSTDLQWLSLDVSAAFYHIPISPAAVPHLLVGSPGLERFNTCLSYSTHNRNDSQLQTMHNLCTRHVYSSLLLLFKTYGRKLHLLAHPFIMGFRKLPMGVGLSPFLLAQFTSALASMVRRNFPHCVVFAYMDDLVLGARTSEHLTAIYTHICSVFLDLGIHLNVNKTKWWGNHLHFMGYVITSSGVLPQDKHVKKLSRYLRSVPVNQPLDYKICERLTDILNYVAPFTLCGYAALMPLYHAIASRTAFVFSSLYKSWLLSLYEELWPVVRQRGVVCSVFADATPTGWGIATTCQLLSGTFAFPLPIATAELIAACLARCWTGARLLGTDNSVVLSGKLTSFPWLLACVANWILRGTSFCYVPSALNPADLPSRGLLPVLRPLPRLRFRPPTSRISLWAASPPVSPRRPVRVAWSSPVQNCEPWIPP

Consider `Cc1cn([C@@H]2C[C@@H](O)[C@H](COP(=O)(O)OP(=O)(O)OP(=O)(O)O)O2)c(=O)[nH]c1=O` [β-L-dT-TP], for which the Ki on human DNA polymerase γ, at human DNA polymerase α and on human DNA polymerase β was over 100 µM in each case. For the same compound, it took 0.34 µM to reach half-maximal inhibition in assay [1] (IC50).
Regarding `Nc1ccn([C@@H]2C[C@@H](O)[C@H](CO)O2)c(=O)n1` [β-L-dC, 2′-Deoxy-β-L-cytidine], in assay [2], the “activity compared with 3TC (lamivudine)” value is “more active than 3TC (lamivudine)” and the “viral load reduced to (level)” value is “nearly undetectable”.
For `Nc1ccn([C@@H]2C[C@@H](O)[C@H](COP(=O)(O)OP(=O)(O)OP(=O)(O)O)O2)c(=O)n1` [β-L-dC-TP], the inhibition constant Ki at human DNA polymerase γ, on human DNA polymerase α and on human DNA polymerase β was over 100 µM throughout. In addition, the IC50 in assay [1] stood at 2 µM.
`Nc1ncnc2c1ncn2[C@@H]1C[C@@H](O)[C@H](CO)O1` [β-L-dA, 2′-Deoxy-β-L-adenosine]: in assay [2], the “activity compared with 3TC (lamivudine)” value is listed as “more active than 3TC (lamivudine)” and the “viral load reduced to (level)” value is listed as “nearly undetectable”.
Take `O=c1ccn([C@@H]2C[C@@H](O)[C@H](COP(=O)(O)OP(=O)(O)OP(=O)(O)O)O2)c(=O)[nH]1` [β-L-dU-TP]: the Ki on human DNA polymerase γ, on human DNA polymerase α and on human DNA polymerase β was over 100 µM in each case. The compound further returned an IC50 in assay [1] of 8 µM.
Take `Cc1cn([C@@H]2C[C@@H](O)[C@H](CO)O2)c(=O)[nH]c1=O` [β-L-dT, 2′-Deoxy-β-L-Thymidine]: in assay [2], the “activity compared with 3TC (lamivudine)” value is “more active than 3TC (lamivudine)” and the “viral load reduced to (level)” value is on record as “undetectable”. Besides, the “viral rebound after withdrawal” value in assay [2] (post-treatment) was “not detected for at least two weeks”.
For the compound `Nc1ncnc2c1ncn2[C@@H]1C[C@@H](O)[C@H](COP(=O)(O)OP(=O)(O)OP(=O)(O)O)O1` [β-L-dA-TP], the Ki on human DNA polymerase α and on human DNA polymerase β was over 100 µM throughout. The same compound showed an IC50 in assay [1] of 2.3 µM.
